The record followed here is US12616753B2, “HSP70 inhibitors and methods of using same” (THE WISTAR INSTITUTE, priority 2020, dated 2026).

One data set has as its system mutant p53 and MRPS14. Kind of data set: Western blot in mouse CRC cell lines. The following applies: 10 μM, 24 or 48 hours. Format: cell-based. The method, then: (§1) FIGS. 5A-5F show AP-4-139B is efficacious against CRC in an immunocompetent model, and causes immune cell recruitment. FIGS. 5A-5B: Mouse CRC cell lines, MC38 (FIG. 5A) and CT26 (FIG. 5B), were plated at a density of 1,000 cells per well in 96-well plates. The next day, cells were treated with the indicated inhibitors for 72 hours. Cells were then subjected to the Alamar Blue cell viability assays. Shown are representative IC50 values of an average of six technical replicates and two biological replicates. FIG. 5C: Mouse CRC cell lines MC38 and CT26 were treated with 10 μM AP-4-139B for 24 or 48 hours and immunoblotted for HSP70, p53, AKT, Cleaved Lamin A (CLA), Cleaved Caspase 3, MRPS14, and GAPDH (loading control). The doublet detected for HSP70 is seen in other murine cell lines, and may represent a degradation product or post-translational modification. FIG. 5D: 1×10^6 MC38 cells were injected subcutaneously into the right flank of 6-8 week old male C57Bl/6 mice. Once tumors reached an approximate volume of 50 mm^3, mice were separated randomly into two groups: vehicle vs. AP-4-139B. Mice were treated with 10 mg/kg AP-4-139B every 48 hours. All mice were euthanized 20 days after the start of treatment. Tumor volumes were recorded using digital calipers and using the formula v=length×width^2×0.52. *** p<0.001. n=15 mice per group.
On the technique in general: Immunoblotting shows a protein as a band on a membrane.

The next data set has as its system MC38 tumors. The data set is described as follows: Syngeneic model of MC38 tumors in C57Bl/6 mice. In kind it is in vivo, mouse. As to conditions: 10 mg/kg every 48 hours. As to the method: as §1
FIG. 5E: Immunohistochemistry (IHC) analysis of MC38 tumors treated with AP-4-139B. Shown are representative images (4-6 random fields of view per condition from four independent tumors) of CD8^+ T cells and Granzyme B (marker for activated immune cells). Respective IgG antibody was used as the negative control. Scale bars=100 μm. FIG. 5F: Quantification of FIG. 5E * p<0.05; ** p<0.01.
FIG. 9A: Body weights of mice injected with HT-29 tumor xenografts. Weights were measured at the start of the treatment to determine mouse toxicity. n.s. not significant, n=15 mice per group. FIG. 9B: Immunohistochemistry (IHC) analysis of MC38 tumors treated with AP-4-139B. Shown are representative images (4-6 random fields of view per condition from four independent tumors) of CD4^+ T cells. Respective IgG antibody was used as the negative control. Scale bars=100 μm. FIG. 9C: Quantification of FIG. 9B.
All studies were carried out in accordance with the recommendations in the Guide for the Care and Use of Laboratory Animals of the National Institutes of Health (NIH). All protocols were approved by The Wistar Institute Institutional Animal Care and Use Committee (IACUC). […] Tumor volumes were measured using digital calipers and tumor volume was calculated using the formula: volume=(length×width^2)×0.52. All mice were monitored daily for signs of pain or distress.

The next data set relates to MC38 and HT-29 cells. The data set is described as follows: Extracellular HMGB1 release. In kind it is cell-based. The following applies: 8 or 24 hours. The method, then:
FIG. 6A: 1×10^6 MC38 cells were injected subcutaneously into the right flank of 6-8-week-old male C57Bl/6 mice. Once tumors reached an approximate volume of 100 mm^3, mice were treated with AP-4-139B (10 mg/kg) every 48 hours. 20 days after the start of treatment, tumors were excised, weighed, minced and digested. Tumor-infiltrating and splenic conventional CD4 (cCD4) (Live CD45^+ DUMP^− CD3^+CD4^+Foxp3^−), Tregs (Live CD45^+ DUMP^− CD3^+CD4^+Foxp3^+), CD8 (Live CD45^+ DUMP^− CD3^+CD8^+) T-cells, and Dendritic Cells (Live CD45^+ DUMP^− CD3^−CD11c^+MHCII^+) numbers were assessed by flow cytometry. * p<0.05, n.s. not significant. n=8 mice per group. FIG. 6B: MC38 and HT-29 cells were treated with the indicated concentrations of AP-4-139B for either 8 or 24 hours; media was collected and subjected to WB for HMGB1. Data shown are representative of three technical replicates. FIG. 6C: MC38 and HT-29 cells were treated with the indicated concentrations of AP-4-139B for three hours and then assayed for extracellular ATP release. […]
The XF Cell Mito Stress Test was performed. […] For extracellular ATP release, ATP was measured using the CellTiter-Glo Kit (Promega catalog #G7570). […] 10 μl of CellTiter-Glo Reaction Mix was then mixed with 10 μl of culture media; the luminescence signal was detected using a luminometer.

Take `c1ccc(-c2cn3nc(CCCCCC[P+](c4ccccc4)(c4ccccc4)c4ccccc4)sc3n2)cc1` [AP-4-139B, Triphenyl(6-(6-phenylimidazo[2,1-b][1,3,4]thiadiazol-2-yl)hexyl)phosphonium bromide]: the “levels of mutant p53 and MRPS14 in MC38 cells” value with mutant p53 and MRPS14 is “decreased levels”. Moreover, in the data set on MC38 tumors, the “CD4+ T cells in tumors (IHC)” value was “increase in CD4+ T cells”, the “infiltrating CD8+ T cells in tumors (IHC)” value was “large percentage of infiltrating CD8^+ T cells” and the “weight loss of mice during treatment” value was “no evidence of weight loss”. Also, the “efficacy in syngeneic MC38 tumors” value in the data set on MC38 tumors (p<0.001) was “significant efficacy as a single agent”. Further, the HMGB1 secretion result with MC38 and HT-29 cells is recorded as “reproducibly induced HMGB1 secretion”.
